Assay results as given in patent US6447817B1, “Anti-inflammatory analgesic” (Nippon Hypox Laboratories Inc., priority 1998, dated 2002).
Entries after “also recorded” stand apart in the source; their conditions may differ.

Tested on: serotonin swelling of rat
Experiment: Inhibition of serotonin swelling of rat sole after application to the skin
Format: in vivo
Conditions: for Average swelling ratio (%) / Average inhibition ratio (%): rat right sole, measured 30 min after injection; for Average swelling ratio (%): 1.5 g of 2% xanthan gum solution with 3% test sample applied 2 h before serotonin injection, control 30; for Average inhibition ratio (%): 3% test sample applied 2 h before serotonin injection
Protocol: For clarifying the effect of the anti-inflammation analgesic preparation of the present invention, the effect of the anti-inflammation analgesic preparation on inhibition of serotonin swelling is shown below.
1.5 Grams of a 2% xanthan gum solution containing a test sample of having a concentration of 3% was applied to a portion ranging from a right femoral portion to a sole portion (bottom portion) of a rat. Two hours after the test sample was applied, a solution of 3 μg/ml of serotonin in 0.1 ml of a saline solution was hypodermically injected into the sole of the right foot. Thirty minutes after the injection of the inflammatory substance, the swelling of the sole of the right leg was measured to determine a swelling ratio. When serotonin as an inflammatory substance involving the generation of a pain is injected, a swelling involving a pain is caused.

Row | Compound | Average swelling ratio (%) | Average inhibition ratio (%) | Inhibition of serotonin swelling (in words) (rat, 3% test sample applied to skin)
1 | O=C(O)COc1nn(Cc2ccccc2)c2ccccc12 [Bendazac, reference compound] | 30% | 0% | failed to inhibit the above inflammation reaction; also recorded: showed no effect on the swelling and was ineffective
2 | CCCCCCCCCCCCOC1=C(O)C(=O)O[C@@H]1[C@@H](O)CO [L-3-0-dodecylascorbic acid] | 14% | 54% | –
3 | CCCCCCCCCCCCC(=O)COC1=C(O)C(=O)O[C@@H]1[C@@H](O)CO [L-3-0-dodecylcarbonylmethylascorbic acid, L-3-0-dodecylcarbonyl-methylascorbic acid] | 13% | 57% | –
4 | CCOC1=C(O)C(=O)O[C@@H]1[C@@H](O)CO [L-3-0-ethylascorbic acid] | 12% | 76% | –
5 | CCCCCCCCCCCCCCCCCCOC(=O)COC1=C(O)C(=O)O[C@@H]1[C@@H](O)CO [L-3-0-octadecyloxycarbonylmethylascorbic acid] | 15% | 50% | –
6 | O=C1O[C@H]([C@@H](O)CO)C([O-])=C1OP(=O)(O)O.O=C1O[C@H]([C@@H](O)CO)C([O-])=C1OP(=O)(O)O.[Mg+2] [L-ascorbic acid-2-phosphoric acid ester magnesium salt] | 28% | 7% | –
